In PMC10762035, “Molecular basis of human trace amine-associated receptor 1 activation” (Nature Communications, 2024):
Positions count from the first letter of the chain named. Several values for one entry are separate records, joined by “and”; a condition that tells them apart may be missing. Equal entries are not always repeated. Where two headings read alike, the source gives them in different places.

Assays:
Format in all cases: cell-based
[1] = biological target: T1, hTA1 W264F (Homo sapiens, UniProt Q96RJ0, W264F); experiment: GloSensor cAMP accumulation assay, W264F mutant;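 also: cells transiently transfected with receptor plus GloSensor, luminescence read 30 min after agonist addition at room temperature, concentration-response curves fitted by log(agonist) vs response regression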
T1 construct: expressed in transfected cells; host or cells: HEK293T
T1 sequence (Q96RJ0 1-339 W264F): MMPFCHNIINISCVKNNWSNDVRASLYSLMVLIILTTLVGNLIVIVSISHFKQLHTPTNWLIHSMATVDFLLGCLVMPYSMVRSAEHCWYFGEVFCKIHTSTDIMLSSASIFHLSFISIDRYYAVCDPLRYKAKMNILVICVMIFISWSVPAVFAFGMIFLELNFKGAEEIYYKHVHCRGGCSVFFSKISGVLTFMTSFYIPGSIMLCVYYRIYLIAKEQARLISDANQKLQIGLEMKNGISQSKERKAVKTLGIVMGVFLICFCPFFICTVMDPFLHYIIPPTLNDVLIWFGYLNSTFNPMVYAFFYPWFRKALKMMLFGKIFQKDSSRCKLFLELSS

[2] = biological target: T2, hTA1 C88/178S (Homo sapiens, UniProt Q96RJ0, C178S/C88S); experiment: GloSensor cAMP accumulation assay, C88S/C178S double mutant; details: for Normalized Luminescence Counts (N=2): log[Compound], single replicate values
T2 construct: expressed in transfected cells; host or cells: HEK293T
T2 sequence (Q96RJ0 1-339 C88S/C178S): T1 sequence (Q96RJ0 1-339 W264F) with C88S, C178S, F264W

[3] = biological target: T3, hTA1 V184P (Homo sapiens, UniProt Q96RJ0, V184P); experiment: GloSensor cAMP accumulation assay, V184P mutant; details: for cAMP accumulation response, single replicate values (source data, Supplementary Figure 5): hTA1 V184P (N=2), log[Compound]
T3 construct: expressed in transfected cells; host or cells: HEK293T
T3 sequence (Q96RJ0 1-339 V184P): T1 sequence (Q96RJ0 1-339 W264F) with V184P, F264W

[4] = biological target: T4, hTA1 T271N (Homo sapiens, UniProt Q96RJ0, T271N); experiment: GloSensor cAMP accumulation assay, T271N mutant
T4 construct: expressed in transfected cells; host or cells: HEK293T
T4 sequence (Q96RJ0 1-339 T271N): T1 sequence (Q96RJ0 1-339 W264F) with F264W, T271N

[5] = W246F mutant (so in the source) minus WT average
[6] = C88S, C178S, each row is one independent experiment, 3 replicates

SMILES: CCC(CC1COC(N)=N1)c1ccccc1 (stereo not shown) [Ro5256390]
- Emax values, Mean [1]: 62.0152 and 91.1137
- EC50 ([1]; EC50, W264F, n=2): 127 nM
- ΔEmax values (each mutant value - WT average) [1, 5]: -41.2891
- ΔpEC50 values (each mutant value - WT average) [1, 5]: -1.382 and -1.371
- EC50 ([1]; W246F mutant (so in the source), each line an independent experiment, 3 replicates, read-out: pEC50 values (Mean) (converted)): 129 nM and 125 nM
- Emax ([1]; read-out: Span ± SEM (Emax normalized to β-PEA), W264F, n=2): 76.6 ± 14.5%
- ΔEmax values (each mutant value - WT average), Mean [2, 6]: 2.588 and 13.0349
- ΔpEC50 values (each mutant value - WT average), Mean [2, 6]: -0.3451 and 0.337
- Normalized Luminescence Counts (N=2) ([2]; C88S, C178S, M = -5): 108.214 and 110.475 and 102.673 and 112.685 and 109.211 and 118.575
- Normalized Luminescence Counts (N=2) ([2]; C88S, C178S, M = -5.522): 107.14 and 118.277 and 96.6804 and 111.477 and 99.2423 and 137.304
- Normalized Luminescence Counts (N=2) ([2]; C88S, C178S, M = -6): 102.956 and 112.171 and 95.8888 and 120.841 and 90.9352 and 145.46
- Normalized Luminescence Counts (N=2) ([2]; C88S, C178S, M = -6.522): 97.5284 and 100.073 and 116.864 and 116.461 and 100.602 and 130.658
- Normalized Luminescence Counts (N=2) ([2]; C88S, C178S, M = -7): 99.1114 and 95.1539 and 92.6097 and 130.507 and 95.1643 and 125.523
- Normalized Luminescence Counts (N=2) ([2]; C88S, C178S, M = -7.522): 77.3448 and 82.7723 and 86.5603 and 108.607 and 127.336 and 130.961
- Normalized Luminescence Counts (N=2) ([2]; C88S, C178S, M = -8): 51.564 and 41.5569 and 41.3873 and 109.966 and 74.6229 and 107.852
- Normalized Luminescence Counts (N=2) ([2]; C88S, C178S, M = -8.522): 25.1047 and 27.2531 and 18.3768 and 63.5971 and 68.4303 and 61.3315
- Normalized Luminescence Counts (N=2) ([2]; C88S, C178S, M = -9): 12.0447 and 13.3451 and 14.08 and 33.9934 and 34.4465 and 30.5195
- Normalized Luminescence Counts (N=2) ([2]; C88S, C178S, M = -9.522): 6.334 and 4.865 and 5.4299 and 15.8687 and 15.4156 and 17.077
- Normalized Luminescence Counts (N=2) ([2]; C88S, C178S, M = -10): 1.925 and 5.769 and 1.359 and 9.978 and 13.6031 and 14.0562
- Normalized Luminescence Counts (N=2) ([2]; C88S, C178S, M = -10.522): 1.303 and 1.416 and 1.359 and 5.9 and 3.6345 and 7.562
- Normalized Luminescence Counts (N=2) ([2]; C88S, C178S, M = -11): 1.02 and 0.285 and 0.3416 and 4.3897 and 3.181 and 3.937
- Normalized Luminescence Counts (N=2) ([2]; C88S, C178S, M = -11.522): 1.416 and 0.4547 and 1.585 and 3.03 and 0.6137 and 2.275
- Normalized Luminescence Counts (N=2) ([2]; C88S, C178S, M = -12): 0.0589 and 1.303 and -0.3369 and 0.9158 and 0.009559 and 0.7648
- Normalized Luminescence Counts (N=2) ([2]; C88S, C178S, M = -12.522): -0.05417 and 0.8504 and 0.7373 and 2.577 and 0.4627 and -0.2925
- Emax values, Mean ([2]; C88S, C178S, normalized (β-PEA = 100), each row is one independent experiment, 3 replicates): 105.892 and 116.339
- EC50 ([2]; EC50, C88/178S, n=2): 5.38 nM
- EC50 ([2]; pEC50 values, Mean, C88S, C178S, each row is one independent experiment, 3 replicates): 11.8 nM and 2.46 nM
- Emax ([2]; read-out: Span ± SEM (Emax normalized to β-PEA)): 111 ± 5.22%
- cAMP accumulation response, single replicate values (source data, Supplementary Figure 5) ([3]; M = -5): 85.3904 and 101.684 and 66.3809 and 100.697 and 92.817 and 97.6917
- cAMP accumulation response, single replicate values (source data, Supplementary Figure 5) ([3]; M = -5.522): 66.0899 and 55.7123 and 71.6182 and 88.7852 and 51.5463 and 90.3979
- cAMP accumulation response, single replicate values (source data, Supplementary Figure 5) ([3]; M = -6): 83.0627 and 77.3404 and 73.6549 and 87.3191 and 55.1749 and 91.0943
- cAMP accumulation response, single replicate values (source data, Supplementary Figure 5) ([3]; M = -6.522): 79.7651 and 75.3037 and 85.0024 and 81.1248 and 49.1639 and 85.8896
- cAMP accumulation response, single replicate values (source data, Supplementary Figure 5) ([3]; M = -7): 89.6578 and 72.685 and 93.7313 and 87.2824 and 64.0448 and 74.7473
- cAMP accumulation response, single replicate values (source data, Supplementary Figure 5) ([3]; M = -7.522): 94.3132 and 66.4779 and 74.3338 and 84.4969 and 64.0814 and 78.046
- cAMP accumulation response, single replicate values (source data, Supplementary Figure 5) ([3]; M = -8): 62.0164 and 54.6454 and 40.6793 and 78.3026 and 66.3539 and 77.7161
- cAMP accumulation response, single replicate values (source data, Supplementary Figure 5) ([3]; M = -8.522): 37.1877 and 24.6764 and 37.2847 and 29.115 and 34.8328 and 41.87
- cAMP accumulation response, single replicate values (source data, Supplementary Figure 5) ([3]; M = -9): 15.9475 and 18.9541 and 11.3891 and 32.8169 and 25.9629 and 26.2194
- cAMP accumulation response, single replicate values (source data, Supplementary Figure 5) ([3]; M = -9.522): 4.018 and 3.436 and 4.212 and 11.3752 and 7.6 and 9.799
- cAMP accumulation response, single replicate values (source data, Supplementary Figure 5) ([3]; M = -10): 0.7205 and 0.9145 and 0.5265 and 3.678 and 2.945 and 4.778
- cAMP accumulation response, single replicate values (source data, Supplementary Figure 5) ([3]; M = -10.522): -0.3463 and -0.9283 and 0.2356 and 0.1229 and 0.08625 and 0.5627
- cAMP accumulation response, single replicate values (source data, Supplementary Figure 5) ([3]; M = -11): -1.316 (2×) and -1.4132 and 1.516 and -0.5368 and 1.039
- cAMP accumulation response, single replicate values (source data, Supplementary Figure 5) ([3]; M = -11.522): -1.51 and -1.219 and -1.704 and 2.615 and 1.516 and 1.552
- cAMP accumulation response, single replicate values (source data, Supplementary Figure 5) ([3]; M = -12): -1.316 and -1.51 and -1.801 and 15.6269 and 16.9097 and 12.5114
- cAMP accumulation response, single replicate values (source data, Supplementary Figure 5) ([3]; M = -12.522): -1.4132 and -1.51 and -0.9283 and 2.505 and 1.149 and 1.736
- ΔpEC50 values (each mutant value - WT average), Mean ([3]; hTA1 V184P mutant minus WT average): 0.1338 and 0.2823
- Emax values, Mean ([3]; hTA1 V184P mutant, β-PEA set to 100, each grid row a separate experiment, 3 replicates): 78.2024
- EC50 ([3]; pEC50 values (Mean), hTA1 V184P mutant, Figure 3B source data, each grid row a separate experiment, 3 replicates): 3.92 nM and 2.79 nM
- EC50 ([3]; pEC50 ± SEM, V184P, n=2): 3.31 nM
- Emax ([3]; read-out: Emax values (Mean), hTA1 V184P mutant, β-PEA set to 100, each grid row a separate experiment, 3 replicates): 81.5%
- Emax ([3]; read-out: Span ± SEM (Emax normalized to β-PEA), V184P, n=2): 79.8 ± 1.63%
- EC50 ([4]; EC50, T271N, n=2): 12.6 nM
- ΔpEC50 values (each mutant value - WT average), Mean ([4]; T271N mutant minus WT average, Figure 5B): -0.2524 and -0.4929
- Emax values, Mean ([4]; T271N mutant, Figure 5B, β-PEA = 100, each row one independent experiment (3 replicates)): 121.264 and 99.7038
- EC50 ([4]; pEC50 values, Mean, T271N mutant, Figure 5B, each row one independent experiment (3 replicates)): 9.54 nM and 16.6 nM
- Emax ([4]; read-out: Span ± SEM (Emax normalized to β-PEA), T271N, n=2): 110%
